Laboratory results: paper PMC5074076, “Novel minimal physiologically-based model for the prediction of passive tubular reabsorption and renal excretion clearance” (European Journal of Pharmaceutical Sciences, 2016)
Read-outs that look alike come from different tables or passages of the source.

Legend:
[1] = cited from earlier work
[2] = Observed clearance ratio and fraction reabsorbed (Freab, Freab′) calculated from CLR, fu,p and GFR; settings: for Freab: observed/apparent, 1 - CLR/(GFR x fu,p), GFR 120 mL/min
Description: The clearance ratio was calculated from clinical data using Eqs. […] For the remaining drugs the fraction reabsorbed (Freab) was calculated using Eq.
GFR values for healthy subjects may vary as a result of biological as well as inter-individual variation and also the method of measurement. […] Individual GFR values for subjects in clinical trials databases were generally not available.
In the proposed model, the nephron is represented as five compartments, namely the glomerulus and four tubular regions, as depicted in Fig. 1. The tubular compartments in the model, listed in anatomical order starting from the glomerulus are: the proximal tubule (PT), the loop of Henle (LoH), the distal tubule (DT) and the collecting duct (CD). […] The relationship between Freab′ and Freab is shown in Eq. (11). The predicted overall Freab′ was calculated from the predicted Freab′ in each (i) tubular region (Freab,i′), as shown in Eq. (12).

[3] = Ionisation classification at pH 6.5 from pKa; assay type: physicochemical; settings: predominant species (> 50%) at pH 6.5 from measured or calculated pKa
Source text: The pKa values associated with ionisable centres identified within a given drug were used to calculate the fraction of drug ionised at pH 6.5. Drugs were then classified into groups as follows: drugs with > 50% unionised at pH 6.5 were classified as “Neutral”; drugs with > 50% ionised as mono −/di −/tri-protic acids or bases were classified as “Acid” or “Base”, respectively; “Zwitterions” were classified as drugs with > 50% ionised, with the major ionised species having no net charge; all other drugs were classified as amphoteric. […] LogD6.5 for neutral, amphoteric and zwitterion drugs were assumed to be equal to LogD7.4.

[4] = healthy adult subjects, overall weighted mean of literature values, absolute (not normalised), ref Supplementary Results Table S2.1
[5] = healthy subjects, plasma and urine data from same subjects, normalised for subject weight and body surface area where necessary, ref Table S2.1
[6] = overall weighted mean of values obtained from a literature survey, ref Table S2.1
[7] = calculated from observed CLR, fu,p and GFR

SMILES | Overall weighted mean CLR [1, 5] [mL/min] | also measured
CC(=O)NC[C@H]1CN(c2ccc(N3CCOCC3)c(F)c2)C(=O)O1 [Linezolid] | 39.5 | CLR [1, 4]: 39.5 mL/min; CLR Observed [1, 6]: 39.54 mL/min; Apparent Freab [2, 7]: 0.576; Apparent Freab’ [2, 7]: 0.581; Freab [2]: 0.58
Cc1cccc(C)c1OCC(C)N (stereo not shown) [Mexiletine] | 71.6 | CLR [1, 4]: 71.6 mL/min; CLR Observed [1, 6]: 71.61 mL/min; Apparent Freab [2, 7]: -0.252; Apparent Freab’ [2, 7]: -0.254
CCCc1cc(=O)[nH]c(=S)[nH]1 [Propylthiouracil] | 3.2 | CLR [1, 4]: 3.20 mL/min; CLR Observed [1, 6]: 3.20 mL/min; Apparent Freab [2, 7]: 0.833; Apparent Freab’ [2, 7]: 0.840; Freab [2]: 0.83
CC(C)NCC(O)COc1ccc(CC(N)=O)cc1 (stereo not shown) [Atenolol] | – | Ionisation at pH 6.5 [3]: Base; Apparent Freab [2, 7]: -0.247; Apparent Freab’ [2, 7]: -0.249
Cc1cc(=O)n(-c2ccccc2)n1C [Antipyrine] | – | CLR ([1]; human, in vivo): 1.22 mL/min; CLR Observed ([1]; human, in vivo): 1.22 mL/min; Overall weighted mean CLR ([1]; human, in vivo): 1.2 mL/min; Ionisation at pH 6.5 [3]: Neutral; Apparent Freab ([2]; human, in vivo): 0.989; Apparent Freab’ ([2]; human, in vivo): 0.997
Cn1c(=O)c2c(ncn2C)n(C)c1=O [Caffeine] | 1.1 | CLR [1, 4]: 1.06 mL/min; CLR Observed [1, 6]: 1.06 mL/min; Apparent Freab [2, 7]: 0.987; Apparent Freab’ [2, 7]: 0.995; Freab [2]: 0.99; Freab ([2]; listed as caffeine): ≥ 0.99
Cc1onc(-c2c(F)cccc2Cl)c1C(=O)N[C@@H]1C(=O)N2[C@@H]1SC(C)(C)[C@@H]2C(=O)O [Flucloxacillin] | 90.9 | –
CO/N=C(\C(=O)N[C@@H]1C(=O)N2C(C(=O)O)=C(COC(C)=O)CS[C@H]12)c1csc(N)n1 [Cefotaxime] | 119.7 | –
C[C@H](Cn1cnc2c(N)ncnc21)OCP(=O)(O)O [Tenofovir] | 220.0 | –
CNCCCN1c2ccccc2CCc2ccccc21 [Desipramine] | 28.6 | –
CCCCC(=O)N(Cc1ccc(-c2ccccc2-c2nnn[nH]2)cc1)[C@H](C(=O)O)C(C)C [Valsartan] | 11.2 | –
NS(=O)(=O)c1cc(C2(O)NC(=O)c3ccccc32)ccc1Cl (stereo not shown) [Chlorthalidone] | 62.3 | –
O=C1Nc2ccc(Cl)cc2C(c2ccccc2Cl)=NC1O (stereo not shown) [Lorazepam] | 0.3 | –
CC(C)c1nc(N(C)S(C)(=O)=O)nc(-c2ccc(F)cc2)c1/C=C/[C@@H](O)C[C@@H](O)CC(=O)O [Rosuvastatin] | 212.5 | –
c1cnc2cc3c(cc2n1)[C@@H]1CNC[C@H]3C1 [Varenicline] | 118.6 | –
CO/N=C1\CN(c2nc3c(cc2F)c(=O)c(C(=O)O)cn3C2CC2)CC1CN (stereo not shown) [Gemifloxacin] | 176.8 | –
C[C@@H](O)[C@H]1C(=O)N2C(C(=O)O)=C(S[C@H]3C[C@@H](C(=O)N4CC[C@H](NC(=O)CNC(=N)N)C4)N(C)C3)[C@H](C)[C@H]12 [Tomopenem] | 77.7 | –
CC1(C)S[C@@H]2[C@H](NC(=O)Cc3ccccc3)C(=O)N2[C@H]1C(=O)O [Benzylpenicillin] | 316.8 | –
CC(C)(C)NCC(O)c1ccc(O)c(CO)c1 (stereo not shown) [Salbutamol] | 289.9 | –
Nc1nnc(-c2cccc(Cl)c2Cl)c(N)n1 [Lamotrigine] | 2.5 | –
NC12CC3CC(CC(C3)C1)C2 [Amantadine] | 219.2 | –
CCCC(CCC)C(=O)O [Valproic Acid] | 0.2 | –
CC1(C)S[C@@H]2[C@H](NC(=O)[C@H](NC(=O)c3cnc4cccnc4c3O)c3ccccc3)C(=O)N2[C@H]1C(=O)O [Apalcillin] | 29.0 | –
CN[C@@H]1CCc2[nH]c3ccc(C(N)=O)cc3c2C1 [Frovatriptan] | 73.5 | –
CCCc1nc(C(C)(C)O)c(C(=O)O)n1Cc1ccc(-c2ccccc2-c2nnn[nH]2)cc1 [Olmesartan] | 11.4 | –

SMILES | Overall weighted mean CLR [1, 5] [mL/min] | also measured
CCCn1c(=O)[nH]c(=O)c2[nH]cnc21 [Enprofylline] | 272.6 | –
COc1ccc([C@@H]2Sc3ccccc3N(CCN(C)C)C(=O)[C@@H]2OC(C)=O)cc1 [Diltiazem] | 48.0 | –
CO[C@@]1(NC(=O)CSCC#N)C(=O)N2C(C(=O)O)=C(CSc3nnnn3C)CS[C@@H]21 [Cefmetazole] | 110.2 | –
CCOc1ccc2ccccc2c1C(=O)N[C@@H]1C(=O)N2[C@@H]1SC(C)(C)[C@@H]2C(=O)O [Nafcillin] | 138.4 | –
COc1c(N2CCNC(C)C2)c(F)cc2c(=O)c(C(=O)O)cn(C3CC3)c12 (stereo not shown) [Gatifloxacin] | 168.4 | –
CO/N=C(\C(=O)N[C@@H]1C(=O)N2C(C(=O)[O-])=C(C[n+]3cccc4c3CCC4)CS[C@H]12)c1csc(N)n1 [Cefpirome] | 97.5 | –
CO/N=C(\C(=O)N[C@@H]1C(=O)N2C(C(=O)O)=CCS[C@H]12)c1csc(N)n1 [Ceftizoxime] | 102.2 | –
COc1ccc2c3c1O[C@H]1C[C@@H](O)C=C[C@@]31CCN(C)C2 [Galantamine] | 57.7 | –
Cc1nnc(C(=O)NC(C)(C)c2nc(C(=O)NCc3ccc(F)cc3)c(O)c(=O)n2C)o1 [Raltegravir] | 55.0 | –
CO[C@H]1/C=C/O[C@@]2(C)Oc3c(C)c(O)c4c(c3C2=O)C2=NC3(CCN(CC(C)C)CC3)NC2=C(NC(=O)/C(C)=C\C=C\[C@H](C)[C@H](O)[C@@H](C)[C@@H](O)[C@@H](C)[C@H](OC(C)=O)[C@@H]1C)C4=O [Rifabutin] | 58.4 | –
COc1c(N2C[C@@H]3CCCN[C@@H]3C2)c(F)cc2c(=O)c(C(=O)O)cn(C3CC3)c12 [Moxifloxacin] | – | Ionisation at pH 6.5 [3]: Zwitterion
Clc1ccc2nsnc2c1NC1=NCCN1 [Tizanidine] | 66.2 | –
NC(=O)c1cnccn1 [Pyrazinamide] | 2.0 | –
NC1CCN(c2c(F)cc3c(=O)c(C(=O)O)cn(C4CC4)c3c2Cl)C1 (stereo not shown) [Clinafloxacin] | 191.0 | –
Oc1ccc(/C=C/c2cc(O)cc(O)c2)cc1 [Resveratrol] | 16.6 | –
CCS(=O)(=O)CCn1c([N+](=O)[O-])cnc1C [Tinidazole] | 11.3 | –
CN/C(=N/CCSCc1nc[nH]c1C)NC#N [Cimetidine] | 417.0 | –
CCn1cc(C(=O)O)c(=O)c2cc(F)c(N3CCNCC3)nc21 [Enoxacin] | 256.7 | –
Cc1cccc(C)c1NC(=O)CC12CCCN1CCC2 [Pilsicainide] | 234.7 | –
CC1(C)S[C@@H]2[C@H](NC(=O)[C@H](NC(=O)N3CCNC3=O)c3ccccc3)C(=O)N2[C@H]1C(=O)O [Azlocillin] | 83.3 | –
C[C@H]1NCc2cc(-c3ccc4c(=O)c(C(=O)O)cn(C5CC5)c4c3OC(F)F)ccc21 [Garenoxacin] | 41.8 | –
O=C(NC[C@H]1CN(c2ccc(N3CCOCC3=O)cc2)C(=O)O1)c1ccc(Cl)s1 [Rivaroxaban] | 49.8 | –
COc1cc2ncnc(Nc3ccc(F)c(Cl)c3)c2cc1OCCCN1CCOCC1 [Gefitinib] | 8.6 | –
CN(C)CCn1nnnc1SCC1=C(C(=O)O)N2C(=O)[C@@H](NC(=O)Cc3csc(N)n3)[C@H]2SC1 [Cefotiam] | 193.7 | –
